From ChEMBL document CHEMBL1126174 (J Med Chem, 1992)

Key:
[1] = biological target: T1, Muscarinic acetylcholine receptor M1 (Rattus norvegicus, UniProt P08482)
T1 sequence (P08482 whole entry): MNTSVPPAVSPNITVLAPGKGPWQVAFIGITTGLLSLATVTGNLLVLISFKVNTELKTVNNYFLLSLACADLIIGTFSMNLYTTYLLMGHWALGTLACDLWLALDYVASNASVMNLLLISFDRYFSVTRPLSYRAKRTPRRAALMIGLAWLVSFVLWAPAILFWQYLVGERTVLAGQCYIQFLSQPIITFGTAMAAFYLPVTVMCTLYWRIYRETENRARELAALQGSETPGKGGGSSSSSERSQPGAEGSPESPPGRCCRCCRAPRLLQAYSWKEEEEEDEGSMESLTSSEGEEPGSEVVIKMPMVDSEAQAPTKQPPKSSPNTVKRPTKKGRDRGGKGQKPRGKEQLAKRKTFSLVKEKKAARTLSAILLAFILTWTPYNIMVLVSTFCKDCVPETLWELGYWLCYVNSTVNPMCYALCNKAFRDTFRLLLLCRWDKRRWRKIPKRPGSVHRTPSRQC
Description: Ability to displace [3H]pirenzepine (pir) from muscarinic acetylcholine receptor M1 in rat cortical tissue.

[2] = biological target: Muscarinic acetylcholine receptor
Description: Ability to displace [3H]cis--2-methyl-5-((dimethylamino)methyl)-1,3-di oxolane from muscarinic acetylcholine receptor in rat cortical tissue.

[3] = biological target: T2, Muscarinic acetylcholine receptor M1 (Rattus norvegicus) (UniProt P08482); details: Hippocampus
T2 sequence (whole entry): T1 sequence (P08482 whole entry)

[4] = biological target: Muscarinic acetylcholine receptor M3 (Cavia porcellus) (UniProt Q8VH26); details: Ileum
Description: Peripheral postsynaptic muscarinic activity by contraction of the guinea pig ileum.

[5] = biological target: T2, Muscarinic acetylcholine receptor M1 (Rattus norvegicus); details: Cervical ganglion
[6] = biological target: Muscarinic acetylcholine receptor; remark: listed apart in the source
[7] = biological target: Muscarinic acetylcholine receptor M3 (Cavia porcellus) (UniProt Q8VH26); assay: Peripheral postsynaptic muscarinic activity was measured relative to muscarine (100%); assay type: functional
[8] = biological target: Muscarinic acetylcholine receptor M3 (Cavia porcellus) (UniProt Q8VH26); assay: (§1) Peripheral postsynaptic muscarinic activity was measured by contraction of the guinea pig ileum in M3 model; assay type: functional, tissue-based
[9] = biological target: T1, Muscarinic acetylcholine receptor M1; assay: Compound was tested for its ability to displace [3H]pirenzepine (pir) from M1 Muscarinic receptor in rat cortical tissue
[10] = biological target: T2, Muscarinic acetylcholine receptor M1 (Rattus norvegicus); assay: Central postsynaptic muscarinic activity was measured by slow depolarization of the rat cervical ganglion in M1 model; assay type: functional, tissue-based
[11] = biological target: T2, Muscarinic acetylcholine receptor M1 (Rattus norvegicus); assay: Central postsynaptic muscarinic activity was measured relative to muscurine (100%); assay type: functional, tissue-based
[12] = biological target: T2, Muscarinic acetylcholine receptor M1 (Rattus norvegicus); assay: Neuronal postsynaptic muscarinic activity was measured by firing rate of the rat hippocampal CA1 neurons in M1 model; assay type: functional, tissue-based; details: Hippocampus
[13] = Ratio of binding affinities towards muscarinic receptor using Pir to that of CD as radioligand
Cavia porcellus = species: Cavia porcellus; assay: as §1; assay type: functional

Sequence of Muscarinic acetylcholine receptor M3 (Cavia porcellus) (Q8VH26 1-587): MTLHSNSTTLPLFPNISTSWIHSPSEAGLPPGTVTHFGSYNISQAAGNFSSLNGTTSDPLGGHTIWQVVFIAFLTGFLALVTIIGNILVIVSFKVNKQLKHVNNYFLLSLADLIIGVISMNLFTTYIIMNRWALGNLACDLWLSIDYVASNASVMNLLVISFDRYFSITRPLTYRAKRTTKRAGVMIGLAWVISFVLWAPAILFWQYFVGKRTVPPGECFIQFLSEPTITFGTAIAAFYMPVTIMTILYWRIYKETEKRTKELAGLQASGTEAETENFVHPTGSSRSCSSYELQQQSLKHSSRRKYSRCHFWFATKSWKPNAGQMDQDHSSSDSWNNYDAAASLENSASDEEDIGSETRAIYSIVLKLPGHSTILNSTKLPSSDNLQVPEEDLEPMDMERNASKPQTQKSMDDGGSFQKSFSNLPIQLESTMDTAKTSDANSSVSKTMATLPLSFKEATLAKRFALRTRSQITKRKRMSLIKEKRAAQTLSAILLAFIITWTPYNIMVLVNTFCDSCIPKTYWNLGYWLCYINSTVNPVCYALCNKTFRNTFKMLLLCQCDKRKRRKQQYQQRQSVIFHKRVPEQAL

| Compound | IC50 [1] | IC50 [2] | pD2 [3] | pD2 [4] | pD2 [5] | other results |
| --- | --- | --- | --- | --- | --- | --- |
| CC[C@@H]1C(O)SC[C@@H]1Cc1cncn1C (stereo partly specified) | 695 nM | 705 nM | < 4 | < 4 | 4.4 | – |
| O=C1CCCN1CC#CCN1CCCC1 [OXOTREMORINE] | 113 nM | 2.8 nM | 7.1 | 7.1 | 8 | – |
| Cn1cncc1C[C@H]1COC(=O)C1 [PILOSININE] | 10000 nM | 2890 nM | – | < 4 | 4.2 | – |
| C[N+](C)(C)CCOC(N)=O | – | – | 6 | 6.7 | 7.2 | – |
| CCN1C(=O)OC[C@@H]1Cc1cncn1C | 288 nM | 100 nM | 5.6 | 5.4 | 6.1 | – |
| CC[C@H]1C(O)SC[C@@H]1Cc1cncn1C (stereo partly specified) | 285 nM | 330 nM | < 4 | < 4 | 4.7 | – |
| CC[C@@H]1C(O)OC[C@@H]1Cc1cncn1C (stereo partly specified) | – | – | – | – | – | IC50 [6]: 45000 nM; Efficiency [7]: 22%; pD2 [8]: 5.2; IC50 [9]: 110000 nM; pD2 [10]: 5.9; Efficiency [11]: 65%; pD2 [12]: < 4; Ratio [13]: 2.4 |
| Cc1ccc(C[N+](C)(C)C)o1 | 1410 nM | 5.6 nM | 5.8 | – | 7.1 | pD2 (Cavia porcellus): 6.8 |
| CC1OCC(CN(C)C)O1 (stereo unspecified) | 2100 nM | 6.4 nM | 6.3 | 7.5 | 7.8 | – |
| C[C@@H]1O[C@H](C[N+](C)(C)C)C[C@H]1O | – | – | 5.9 | 6.8 | 7.4 | – |

Continued, in another order:

| IC50 [1] | IC50 [2] | pD2 [3] | pD2 [4] | pD2 [5] | Compound | other results |
| --- | --- | --- | --- | --- | --- | --- |
| 435 nM | 54 nM | 5.3 | 5.3 | 6.5 | CC[C@@H]1C(=O)SC[C@@H]1Cc1cncn1C | – |
| 51 nM | 45 nM | – | 5.6 | 5.2 | CC[C@H]1C(=S)SC[C@@H]1Cc1cncn1C | – |
| 10000 nM | 10000 nM | 4.1 | < 4 | 4.4 | CC[C@H]1C(=O)N(C)C[C@@H]1Cc1cncn1C | – |
| 9950 nM | 800 nM | 4.7 | 4.6 | 5.6 | CC[C@H]1C(=O)NC[C@@H]1Cc1cncn1C | – |
| 1800 nM | 445 nM | < 4 | 4.5 | 5.7 | CC[C@@H]1COC[C@@H]1Cc1cncn1C | – |
| 775 nM | 320 nM | 5.4 | 4.8 | 4.7 | CC[C@H]1C(=O)SC[C@@H]1Cc1cncn1C | – |
| 5150 nM | 845 nM | 4.5 | 4.2 | 5.2 | CC[C@@H]1C(=O)NC[C@@H]1Cc1cncn1C | – |
| 10200 nM | 4600 nM | – | 4.2 | 100 | CC[C@@H]1C(=O)N(C)C[C@@H]1Cc1cncn1C | – |
